Values after ≈ are worked out from the molar mass of the structure shown.
How the values were obtained:
[1] = system: E. coli BAA 196; assay: MIC by micro broth dilution; format: cell-based; conditions: Escherichia coli, BAA196, read-out: Minimum inhibitory concentration (MIC)
Summary of the method: (§1)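 Bacteria were grown on BHI agar at 37° C. for 24 h, adjusted to 0.5 McFarland and diluted 100-fold. This suspension was added to serially doubled compound in BHI broth, incubated 24 h at 37° C., and MIC was read with Alamar blue.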

[2] = system: E. fecalis CCARM 5168; assay: MIC by micro broth dilution; format: cell-based; conditions: read-out: Minimum inhibitory concentration (MIC)
Summary of the method: as §1

[3] = system: E. faecium CCARM 5207; assay: MIC by micro broth dilution; format: cell-based; conditions: Enterococcus faecium, CCARM5207, read-out: Minimum inhibitory concentration (MIC)
Summary of the method: as §1

[4] = system: K. pneumonia ATCC 13883; assay: MIC by micro broth dilution; format: cell-based
Summary of the method: as §1

[5] = system: E. coli MTCC 1687; assay: MIC by micro broth dilution; format: cell-based; conditions: Escherichia coli, MTCC1687, read-out: Minimum inhibitory concentration (MIC)
Summary of the method: as §1

[6] = system: E. faecium NCIM 5421; assay: MIC by micro broth dilution; format: cell-based; conditions: Enterococcus faecium, NCIM5421, read-out: Minimum inhibitory concentration (MIC)
Summary of the method: as §1

[7] = system: A. baumannii ATCC 1906; assay: MIC by micro broth dilution; format: cell-based; conditions: Acinetobacter baumannii, ATCC1906, read-out: Minimum inhibitory concentration (MIC)
Summary of the method: as §1

[8] = system: A. baumannii CCARM 12020; assay: MIC by micro broth dilution; format: cell-based; conditions: Acinetobacter baumannii, CCARM12020, read-out: Minimum inhibitory concentration (MIC)
Summary of the method: as §1

[9] = system: S. epidermidis ATCC 35984; assay: MIC by micro broth dilution; format: cell-based; conditions: Staphylococcus epidermidis, ATCC35984, read-out: Minimum inhibitory concentration (MIC)
Summary of the method: as §1

[10] = system: P. aeruginosa CCARM 2204; assay: MIC by micro broth dilution; format: cell-based; conditions: Pseudomonas aeruginosa, CCARM2204, read-out: Minimum inhibitory concentration (MIC)
Summary of the method: as §1

[11] = system: S. epidermidis S12-1; assay: MIC by micro broth dilution; format: cell-based; conditions: Staphylococcus epidermidis, S121, read-out: Minimum inhibitory concentration (MIC)
Summary of the method: as §1

[12] = system: S. aureus ATCC 43300; assay: MIC by micro broth dilution; format: cell-based; conditions: Staphylococcus aureus, ATCC43300; S. aureus ATCC 43300; read-out: Minimum inhibitory concentration (MIC)
Summary of the method: as §1

[13] = system: E. aerogenes M2-1; assay: MIC by micro broth dilution; format: cell-based; conditions: Klebsiella aerogenes, M21, read-out: Minimum inhibitory concentration (MIC)
Summary of the method: as §1

[14] = system: S. aureus CCARM 3505; assay: MIC by micro broth dilution; format: cell-based; conditions: Staphylococcus aureus, CCARM3505, read-out: Minimum inhibitory concentration (MIC)
Summary of the method: as §1

[15] = system: A. baumannii CCARM 12001; assay: MIC by micro broth dilution; format: cell-based; conditions: Acinetobacter baumannii, CCARM12001, read-out: Minimum inhibitory concentration (MIC)
Summary of the method: as §1

[16] = system: P. aeruginosa CCARM 2161; assay: MIC by micro broth dilution; format: cell-based; conditions: Pseudomonas aeruginosa, CCARM2161, read-out: Minimum inhibitory concentration (MIC)
Summary of the method: as §1

[17] = system: E. aerogenes NCIM 5139; assay: MIC by micro broth dilution; format: cell-based; conditions: Klebsiella aerogenes, NCIM5139, read-out: Minimum inhibitory concentration (MIC)
Summary of the method: as §1

[18] = system: P. aeruginosa ATCC 27853; assay: MIC by micro broth dilution; format: cell-based; conditions: Pseudomonas aeruginosa, ATCC27853, read-out: Minimum inhibitory concentration (MIC)
Summary of the method: as §1

[19] = system: S. aureus MTCC 6908; assay: MIC by micro broth dilution; format: cell-based; conditions: Staphylococcus aureus, MTCC6908, read-out: Minimum inhibitory concentration (MIC)
Summary of the method: as §1

[20] = Drug release assay of compound impregnated Smart set HV; format: physicochemical; conditions: Smart set HV loaded; PBS buffer (pH 6.8):acetonitrile (9:1), 32° C., 7 days
Experimental: The drug release study with compound 2 and compound 10 were conducted in sample vial containing 1.5 ml of dissolution media i.e., PBS buffer (pH 6.8):acetonitrile (9:1). The sample was kept in incubator rotator at 32° C. at 40 rpm. The release medium was withdrawn at specified interval of time (2 hr, 4 hr, 6 hr, day 1, day 2, day 3, day 4, day 5, day 6, day 7 and replaced by fresh 1.5 ml dissolution medium each time. All the samples were kept at −20° C. till the analysis is done. The measurement of drug release was done by HPLC.

[21] = system: S. epidermidis S5-2; assay: Sequential ZIB (zone of inhibition) assay for PMMA beads; format: cell-based, Staphylococcus epidermidis; conditions: SmartSet HV impregnated beads
Experimental: S. epidermidis S5-2 cells were grown in Brain Heart Infusion Agar (BHIA) at 37° C. for 24 h. 100 μl of 0.5 McFarland equal bacterial suspension was spread on BHA plates. Drug loaded beads were placed above these plates. Plates were incubated at 37° C. for 24 h. Next day, zone of inhibition (ZOI) the beads were measured following which the beads were placed on fresh BHA plates with bacterial suspension spread and this experiment was continued up to seven days. The drug release pattern was determined by compiling and analyzing the ZOI data of beads on each ZOI cycle up to seven days.

MIC [1]: 4 µg/mL (≈ 8.43 µM)
MIC [2]: 1 µg/mL (≈ 2.11 µM)
MIC [3]: > 16 µg/mL
MIC ([4]; Klebsiella pneumoniae, ATCC13883, K. pneumonia ATCC 13883, read-out: Minimum inhibitory concentration (MIC)): 0.25 µg/mL (≈ 0.527 µM)
MIC [5]: 0.13 µg/mL (≈ 0.274 µM)
MIC [6]: 0.125 µg/mL (≈ 0.263 µM)
MIC [7]: 1 µg/mL (≈ 2.11 µM)
MIC [8]: 8 µg/mL (≈ 16.9 µM)
MIC [9]: < 0.03 µg/mL
MIC [10]: 4 µg/mL (≈ 8.43 µM)
MIC [11]: 2.25 µg/mL (≈ 4.74 µM)
MIC [12]: < 0.02 µg/mL
MIC [13]: 0.25 µg/mL (≈ 0.527 µM)
MIC [14]: 1 µg/mL (≈ 2.11 µM)
MIC [15]: > 16 µg/mL
MIC [16]: > 16 µg/mL
MIC [17]: 0.125 µg/mL (≈ 0.263 µM)
MIC [18]: 1 µg/mL (≈ 2.11 µM)
MIC [19]: 0.04 µg/mL (≈ 0.0843 µM)
SMILES: CC1Sc2c(C(=O)O)c(=O)c3cc(F)c(N4CCN(Cc5ccc([N+](=O)[O-])o5)CC4)cc3n21 (stereo not shown) [Compound 10, 6-Fluoro-1-methyl-7-(4-((5-nitrofuran-2-yl)methyl)piperazin-1-yl)-4-oxo-1H,4H-[1,3]thiazeto[3,2-a]-quinoline-3-carboxylic acid]
activity in words ([4]; Klebsiella pneumonia (susceptible)): active
drug release from bone cement in words [20]: sustained release of active over a period of 7 days
Sequential ZOI ([21]; Day-1): 2.2 cm
Sequential ZOI ([21]; Day-2): 2 cm
Sequential ZOI ([21]; Day-3): 1.8 cm
Sequential ZOI ([21]; Day-4): 1.7 cm
Sequential ZOI ([21]; Day-5): 1.7 cm
Sequential ZOI ([21]; Day-6): 1.6 cm
Sequential ZOI ([21]; Day-7): 1.8 cm

From patent US10570152B2, “Antibacterial therapeutics and prophylactics” (VYOME BIOSCIENCES PVT. LTD., priority 2015, dated 2020)
